The record followed here is PubChem BioAssay (NCI).

The structures appear in SMILES notation.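 Tested at 5 concentrations; 48 h exposure; 96-well plates; endpoints linearly interpolated, else capped at highest concentration. GI50 = concentration required for 50% inhibition of growth. TGI: total growth inhibition.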

Among the test systems are PC-3 prostate; NCI-H226 lung; U251 CNS; OVCAR-5 ovarian; IGROV1 ovarian; SF-539 CNS; OVCAR-8 ovarian; A498 renal; SN12C renal; SK-OV-3 ovarian.
Holding throughout (assay): NCI tumour cell line growth inhibition, 48 h

`Cc1cn2c(/C=C3\C(=O)N(C)c4ccc(O)cc43)c(C)nc2s1`: the GI50 in the experiment with PC-3 prostate was 7.46 µM; in the experiment with NCI-H226 lung, 52.1 µM; in the experiment on U251 CNS, 5.64 µM; in the experiment on OVCAR-5 ovarian, 27.8 µM; in the experiment with IGROV1 ovarian, 4.26 µM; with SF-539 CNS, 5.58 µM. Moreover, the GI50 was 11.3 µM in the experiment on OVCAR-8 ovarian, 21.6 µM in the experiment with A498 renal, 18.3 µM with SN12C renal and 7.52 µM with SK-OV-3 ovarian. Also, the TGI in the experiment with PC-3 prostate was above 100 µM; in the experiment with NCI-H226 lung it was above 100 µM; in the experiment on U251 CNS, above 100 µM; with OVCAR-5 ovarian, above 100 µM; in the experiment on IGROV1 ovarian, 28.7 µM; in the experiment on SF-539 CNS, 28 µM. Besides, the TGI in the experiment with OVCAR-8 ovarian is above 100 µM; in the experiment on A498 renal it was 60.4 µM; in the experiment with SN12C renal, above 100 µM; with SK-OV-3 ovarian, 43.2 µM.
For `Cc1cc[c-]cc1.Fc1c[c-]c(-c2ccccn2)c(F)c1.[Pt+2].c1ccc(P(C[PH+](c2ccccc2)c2ccccc2)c2ccccc2)cc1`, the GI50 was 1.76 µM in the experiment on PC-3 prostate; 2.93 µM in the experiment on NCI-H226 lung; 2.32 µM with U251 CNS; 2.99 µM in the experiment with OVCAR-5 ovarian; 2.11 µM in the experiment with IGROV1 ovarian; 3.34 µM in the experiment with SF-539 CNS. For the same compound, the GI50 with OVCAR-8 ovarian was 2.68 µM; in the experiment on A498 renal, 2.04 µM; in the experiment on SN12C renal it was 2.4 µM; with SK-OV-3 ovarian, 2.77 µM. In addition, the TGI stood at 11.7 µM in the experiment with PC-3 prostate; 11.6 µM in the experiment on NCI-H226 lung; 12.2 µM in the experiment on U251 CNS; 11.9 µM in the experiment on OVCAR-5 ovarian; 12.2 µM in the experiment with IGROV1 ovarian; 12.4 µM in the experiment with SF-539 CNS. Also, the TGI with OVCAR-8 ovarian is 15.4 µM; in the experiment on A498 renal, 6.11 µM; in the experiment with SN12C renal it was 10.1 µM; in the experiment with SK-OV-3 ovarian, 7.79 µM.
As for `C[C@]12CC[C@H](O)C[C@H]1CC[C@@H]1[C@@H]2CC[C@]2(C)[C@@H](C3=CC(=O)OC3)CC[C@]12O`, the GI50 in the experiment on PC-3 prostate is 0.178 µM; in the experiment with A498 renal, 0.0591 µM. Moreover, the TGI in the experiment on PC-3 prostate came out at 3.7 µM; with NCI-H226 lung it was 2.83 µM; with U251 CNS it was 1.52 µM; with OVCAR-5 ovarian, 1.93 µM; in the experiment with IGROV1 ovarian, 2.82 µM; in the experiment with SF-539 CNS, 0.16 µM. The TGI with OVCAR-8 ovarian turned out to be 1.07 µM; in the experiment on A498 renal it was 0.378 µM; with SN12C renal it was 0.327 µM; with SK-OV-3 ovarian it was 0.818 µM.
For `O=C(/C=C/c1cc(CN2CCOCC2)c(O)c2ncccc12)c1cc(CN2CCOCC2)c(O)c2ncccc12`, the GI50 with PC-3 prostate was 0.05 µM; in the experiment with NCI-H226 lung, 0.43 µM; in the experiment on U251 CNS, below 0.0172 µM; in the experiment on OVCAR-5 ovarian, 0.0585 µM; with IGROV1 ovarian it was 0.0682 µM; in the experiment on SF-539 CNS it was 0.0433 µM. Also, the GI50 in the experiment on OVCAR-8 ovarian is 0.0359 µM; in the experiment on A498 renal it was 0.246 µM; in the experiment with SN12C renal, 0.0673 µM; in the experiment on SK-OV-3 ovarian it was 0.0348 µM. For the same compound, the TGI in the experiment with PC-3 prostate was above 100 µM; in the experiment with NCI-H226 lung it was 41.8 µM; in the experiment with U251 CNS it was 4.95 µM; with OVCAR-5 ovarian, above 100 µM; with IGROV1 ovarian, above 66.6 µM; in the experiment with SF-539 CNS, 23.6 µM. Further, the TGI in the experiment with OVCAR-8 ovarian was above 100 µM; with A498 renal, 18 µM; in the experiment with SN12C renal it was above 100 µM; in the experiment on SK-OV-3 ovarian it was 0.357 µM.
Take `Nc1nc(SN=Nc2ccc(S(N)(=O)=O)cc2)c2[nH]cnc2n1`: the GI50 was 1.64 µM in the experiment with PC-3 prostate; 0.867 µM in the experiment with NCI-H226 lung; 2.66 µM in the experiment on U251 CNS; 0.629 µM in the experiment on OVCAR-5 ovarian; 1.65 µM with IGROV1 ovarian; 0.552 µM in the experiment with SF-539 CNS. The GI50 is 0.419 µM with OVCAR-8 ovarian, 1.35 µM in the experiment on A498 renal, 0.698 µM in the experiment with SN12C renal and 0.39 µM in the experiment on SK-OV-3 ovarian. Further, the TGI with PC-3 prostate, in the experiment on NCI-H226 lung, in the experiment on U251 CNS, in the experiment with OVCAR-5 ovarian, in the experiment with IGROV1 ovarian and in the experiment on SF-539 CNS was above 100 µM throughout. Besides, the TGI with OVCAR-8 ovarian is above 100 µM; in the experiment with A498 renal, 7.47 µM; with SN12C renal, above 100 µM; with SK-OV-3 ovarian, 13.6 µM.
As for `N=C(N)SCc1cccc(-c2nc3ccccc3c(=O)o2)c1`, the TGI with PC-3 prostate, with NCI-H226 lung, in the experiment on U251 CNS, in the experiment on OVCAR-5 ovarian, in the experiment with IGROV1 ovarian and in the experiment with SF-539 CNS was above 100 µM each time. The TGI in the experiment with OVCAR-8 ovarian, in the experiment with A498 renal, in the experiment with SN12C renal and in the experiment with SK-OV-3 ovarian was above 100 µM throughout.
On to `C=C1C(=O)O[C@H]2[C@H]1CC/C(COC(=O)c1ccc(Cl)nc1)=C\CC[C@@]1(C)O[C@@H]21`, for which the GI50 in the experiment with PC-3 prostate is 10.2 µM; with NCI-H226 lung, 2.66 µM; in the experiment on U251 CNS it was 4.85 µM; in the experiment with OVCAR-5 ovarian it was 2.95 µM; in the experiment on IGROV1 ovarian, 1.43 µM; in the experiment on SF-539 CNS, 1.61 µM. Also, the GI50 in the experiment with OVCAR-8 ovarian was 3.26 µM; in the experiment with A498 renal, 17.8 µM; in the experiment on SN12C renal it was 2.15 µM; in the experiment with SK-OV-3 ovarian, 14.8 µM. Moreover, the TGI in the experiment on PC-3 prostate was 23.1 µM; with NCI-H226 lung it was 6.78 µM; in the experiment with U251 CNS it was 15.9 µM; with OVCAR-5 ovarian, 9.4 µM; in the experiment with IGROV1 ovarian it was 6.2 µM; in the experiment on SF-539 CNS, 3.61 µM. Further, the TGI with OVCAR-8 ovarian came out at 12.7 µM; in the experiment with A498 renal, 32.7 µM; in the experiment on SN12C renal, 5.42 µM; in the experiment with SK-OV-3 ovarian, 28.5 µM.
As to `COc1ccc2c(c1)C(C)Cc1c(ncnc1-n1c(C)nc3ccccc31)N2C` (configuration not stated), the GI50 is 3.25 µM in the experiment with PC-3 prostate; 11.5 µM with NCI-H226 lung; 4.51 µM in the experiment on U251 CNS; 13 µM in the experiment with OVCAR-5 ovarian; 6.3 µM with IGROV1 ovarian; 2.34 µM in the experiment with SF-539 CNS. Also, the GI50 in the experiment on OVCAR-8 ovarian is 4.83 µM; with A498 renal it was 2.15 µM; with SN12C renal, 13 µM; with SK-OV-3 ovarian it was 3.53 µM. Besides, the TGI came out at 27.3 µM in the experiment with PC-3 prostate; 36.1 µM with NCI-H226 lung; 17.7 µM in the experiment with U251 CNS; 39.8 µM with OVCAR-5 ovarian; 36.2 µM in the experiment on IGROV1 ovarian; 6.92 µM in the experiment on SF-539 CNS. For the same compound, the TGI in the experiment with OVCAR-8 ovarian stood at 40.1 µM; in the experiment on A498 renal it was 9.03 µM; with SN12C renal, 77.6 µM; with SK-OV-3 ovarian, 18.5 µM.
